Assay [1] deals with Apoptosis regulator Bcl-2 (Homo sapiens, UniProt P10415). Kind of assay: Inhibition of Bid-BH3 peptide binding to Bcl-2 (unknown origin) after 3 hrs by fluorescence polarization method.
Another assay concerns the target Bcl-2-like protein 1 (Homo sapiens, UniProt Q07817). The assay can be described thus: Inhibition of Bid-BH3 peptide binding to Bcl-xL (unknown origin) after 3 hrs by fluorescence polarization method.
Assay [2] deals with Induced myeloid leukemia cell differentiation protein Mcl-1 (Homo sapiens, UniProt Q07820). Kind of assay: Inhibition of Bid-BH3 peptide binding to Mcl-1 (unknown origin) after 3 hrs by fluorescence polarization method. On the technique in general: Polarisation of emitted light reports the rotation of a fluorescent probe.
Induced myeloid leukemia cell differentiation protein Mcl-1, sequence (Q07820 whole entry): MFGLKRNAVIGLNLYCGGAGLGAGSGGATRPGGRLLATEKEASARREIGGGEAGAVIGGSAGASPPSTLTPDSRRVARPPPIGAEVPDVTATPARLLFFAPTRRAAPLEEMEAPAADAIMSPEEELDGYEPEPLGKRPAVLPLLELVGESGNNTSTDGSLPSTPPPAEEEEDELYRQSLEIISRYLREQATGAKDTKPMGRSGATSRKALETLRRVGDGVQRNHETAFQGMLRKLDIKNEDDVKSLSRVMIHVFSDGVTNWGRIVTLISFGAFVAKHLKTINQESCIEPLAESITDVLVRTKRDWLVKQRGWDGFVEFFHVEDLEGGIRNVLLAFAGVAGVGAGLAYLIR
For assay [3], the system named is Jurkat. The assay can be described thus: Antiproliferative activity against human Jurkat cells after 72 hrs by MTT assay. Format: functional, cell-based. For orientation: Tetrazolium assays rely on reduction of a dye to a coloured formazan, in cell work by metabolically active cells.
A further assay relates to RS4-11. Kind of assay: Antiproliferative activity against human RS4:11 cells after 72 hrs by MTT assay. Format: functional, cell-based. The settings on record: RS4-11, 72 h.
The test system of the next assay is THP-1. Kind of assay: Antiproliferative activity against human THP1 cells after 72 hrs by MTT assay. Format: functional, cell-based. Particulars: THP-1, 72 h; call rule not given here.
A further assay deals with MOLT-4. The assay can be described thus: Antiproliferative activity against human MOLT4 cells after 72 hrs by MTT assay. The assay is classed as functional, cell-based. Particulars: MOLT-4, 72 h.
The subject of the next assay is HUVEC. The assay can be described thus: Cytotoxicity against HUVEC cells after 72 hrs by MTT assay. The assay is classed as cell-based. The settings on record: Homo sapiens.
Assay [4] deals with Jurkat. Kind of assay: Induction of apoptosis in human Jurkat cells assessed as viable cells at 10 uM after 48 hrs by annexin V-FITC/PI staining based flow cytometry (reference value: 97.4%). The assay is classed as functional. The settings on record: read-out: Activity.
In assay [5] the test system is Jurkat. Kind of assay: Induction of apoptosis in human Jurkat cells assessed as early apoptotic cells at 10 uM after 48 hrs by annexin V-FITC/PI staining based flow cytometry (reference value: 2.26%). The assay is classed as functional.
In assay [6] the test system is Jurkat. Kind of assay: Induction of apoptosis in human Jurkat cells assessed as late apoptotic cells at 10 uM after 48 hrs by annexin V-FITC/PI staining based flow cytometry (reference value: 0.31%). Format: functional. A general note: Flow cytometry measures light scatter and fluorescence of single cells or particles in a stream.
Assay [7] deals with Jurkat. Kind of assay: Induction of apoptosis in human Jurkat cells assessed as necrotic cells at 10 uM after 48 hrs by annexin V-FITC/PI staining based flow cytometry (reference value: 0.008%). The assay is classed as functional.
In assay [8] the test system is Jurkat. Kind of assay: Induction of apoptosis in human Jurkat cells assessed as viable cells at 20 uM after 48 hrs by annexin V-FITC/PI staining based flow cytometry (reference value: 97.4%). Format: functional. Particulars: read-out: Activity.
The subject of assay [9] is Jurkat. The assay can be described thus: Induction of apoptosis in human Jurkat cells assessed as early apoptotic cells at 20 uM after 48 hrs by annexin V-FITC/PI staining based flow cytometry (reference value: 2.26%). Format: functional.
In assay [10] the test system is Jurkat. Kind of assay: Induction of apoptosis in human Jurkat cells assessed as late apoptotic cells at 20 uM after 48 hrs by annexin V-FITC/PI staining based flow cytometry (reference value: 0.31%). Format: functional.
In assay [11] the test system is Jurkat. The assay can be described thus: Induction of apoptosis in human Jurkat cells assessed as necrotic cells at 20 uM after 48 hrs by annexin V-FITC/PI staining based flow cytometry (reference value: 0.008%). Format: functional.
The subject of assay [12] is Jurkat. Kind of assay: Induction of apoptosis in human Jurkat cells after 48 hrs by annexin V-FITC/PI staining based flow cytometry. Format: functional, cell-based.
Assay [13] relates to Jurkat. The assay can be described thus: Induction of apoptosis in human Jurkat cells assessed as increase in activation of caspase-3 after 48 hrs by fluorometric method. Format: functional, cell-based.

Where only a bound is given, the exact number is not on record here.

Bcl-2-like protein 1, sequence (Q07817 whole entry): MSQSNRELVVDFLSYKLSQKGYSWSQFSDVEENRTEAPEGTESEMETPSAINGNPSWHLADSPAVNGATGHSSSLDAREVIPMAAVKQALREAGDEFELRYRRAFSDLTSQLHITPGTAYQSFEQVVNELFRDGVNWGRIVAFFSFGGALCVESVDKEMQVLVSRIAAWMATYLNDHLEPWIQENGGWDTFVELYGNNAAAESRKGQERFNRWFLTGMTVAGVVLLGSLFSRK
Apoptosis regulator Bcl-2, sequence (P10415 whole entry): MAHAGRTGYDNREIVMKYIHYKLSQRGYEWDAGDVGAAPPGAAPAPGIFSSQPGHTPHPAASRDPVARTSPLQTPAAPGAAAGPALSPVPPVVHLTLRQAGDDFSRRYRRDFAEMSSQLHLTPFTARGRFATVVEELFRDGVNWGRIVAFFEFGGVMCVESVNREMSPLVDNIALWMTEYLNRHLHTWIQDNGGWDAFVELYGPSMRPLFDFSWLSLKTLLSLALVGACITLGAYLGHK

The term Ki denotes a dissociation constant, usually derived from enzyme kinetics or from competition with a known ligand. For `CCCCCC(=O)N[C@@H](Cc1ccc(OCc2ccc(-c3ccccc3)cc2)cc1)C(=O)NS(=O)(=O)c1ccc(Cl)c([N+](=O)[O-])c1`, the Ki in assay [1] (read-out: Ki) was found to be 560 nM.

For `CC(C)(C)OC(=O)N[C@@H](Cc1ccc(OCc2ccccc2)cc1)C(=O)NS(=O)(=O)c1ccc(NCCCc2ccccc2)c([N+](=O)[O-])c1`, in [1] (read-out: Ki), the Ki came to 1500 nM.

`N#Cc1ccc(COc2ccc(C[C@H](NC(=O)Cc3ccc(-c4ccccc4)cc3)C(=O)NS(=O)(=O)c3ccc(NC4CCCC4)c([N+](=O)[O-])c3)cc2)cc1`: the Ki in assay [1] (read-out: Ki) worked out at 610 nM.

A word on the IC50: it is the concentration that inhibits the measured activity by half. Read a low IC50 as inhibition by little substance. In the case of `Cc1ccc(CC(=O)N[C@@H](Cc2ccc(OCc3ccccc3)cc2)C(=O)NS(=O)(=O)c2ccc(NCCCc3ccccc3)c([N+](=O)[O-])c2)cc1`, the Ki was 450 nM in assay [1] (read-out: Ki), “Not Active” at Bcl-2-like protein 1 and 500 nM in assay [2]. Also, the IC50 in the assay on Jurkat [3] was 23.8 µM; with RS4-11, 16.8 µM; with THP-1, 23.9 µM; with MOLT-4, > 50 µM; in the assay with HUVEC it was > 50 µM.

Consider `Cl.N#Cc1ccc(COc2ccc(C[C@H](N)C(=O)NS(=O)(=O)c3ccc(NCCCc4ccccc4)c([N+](=O)[O-])c3)cc2)cc1`, for which, in [1], the inhibition constant (Ki) result is on record as “Not Active”.

`Cc1ccc(-c2ccc(COc3ccc(C[C@H](NC(=O)OC(C)(C)C)C(=O)NS(=O)(=O)c4ccc(NCCOc5ccccc5)c([N+](=O)[O-])c4)cc3)cc2)cc1`: the inhibition constant (Ki) in assay [1] (read-out: Ki) turned out to be 850 nM.

In the case of `Cl.N[C@@H](Cc1ccc(OCc2ccc(-c3ccccc3)cc2)cc1)C(=O)NS(=O)(=O)c1ccc(Cl)c([N+](=O)[O-])c1`, the Ki result in assay [1] is reported as “Not Active”.

Consider `Cl.N[C@@H](Cc1ccc(OCc2ccc(-c3ccccc3)cc2)cc1)C(=O)NS(=O)(=O)c1ccc(NC2CCCCC2)c([N+](=O)[O-])c1`, for which the Ki entry in assay [1] is listed as “Not Active”.

Turning to `N#Cc1ccc(COc2ccc(C[C@H](NC(=O)c3ccc4ccccc4c3)C(=O)NS(=O)(=O)c3ccc(NCCCc4ccccc4)c([N+](=O)[O-])c3)cc2)cc1`, in assay [1], the inhibition constant Ki result is given as “Not Active”.

Take `CC(C)(C)OC(=O)N[C@@H](Cc1ccc(OCc2ccc(-c3ccc(Cl)cc3)cc2)cc1)C(=O)NS(=O)(=O)c1ccc(Cl)c([N+](=O)[O-])c1`: the Ki in assay [1] (read-out: Ki) came out at 580 nM.

As to `CC(C)(C)OC(=O)N[C@@H](Cc1ccc(OCc2ccc(Oc3ccccc3)cc2)cc1)C(=O)NS(=O)(=O)c1ccc(Cl)c([N+](=O)[O-])c1`, in assay [1] (read-out: Ki), the Ki is 700 nM.

Regarding `CC(C)(C)OC(=O)N[C@@H](Cc1ccc(OCc2ccc(C#N)cc2)cc1)C(=O)NS(=O)(=O)c1ccc(NC2CCCC2)c([N+](=O)[O-])c1`, in assay [1], the Ki entry is recorded as “Not Active”.

Regarding `Cc1ccc(CC(=O)N[C@@H](Cc2ccc(OCc3ccc(-c4ccccc4)cc3)cc2)C(=O)NS(=O)(=O)c2ccc(Cl)c([N+](=O)[O-])c2)cc1`, the Ki in assay [1] (read-out: Ki) was determined as 1100 nM.

Consider `Cc1ccc(-c2ccc(COc3ccc(C[C@H](NC(=O)OC(C)(C)C)C(=O)NS(=O)(=O)c4ccc(Cl)c([N+](=O)[O-])c4)cc3)cc2)cc1`, for which the Ki in assay [1] (read-out: Ki) is 390 nM.

Consider `CC(C)(C)OC(=O)N[C@@H](Cc1ccc(OCc2ccc(-c3ccccc3)cc2)cc1)C(=O)NS(=O)(=O)c1ccc(NCCCc2ccccc2)c([N+](=O)[O-])c1`, for which the Ki entry in assay [1] was “Not Active”.

As to `CC(C)(C)OC(=O)N[C@@H](Cc1ccc(OCc2ccccc2)cc1)C(=O)NS(=O)(=O)c1ccc(Cl)c([N+](=O)[O-])c1`, the Ki result in assay [1] is “Not Active”.

For `CC(C)(C)OC(=O)N[C@@H](Cc1ccc(OCc2ccc(-c3ccccc3)cc2)cc1)C(=O)NS(=O)(=O)c1ccc(NC2CCCCC2)c([N+](=O)[O-])c1`, the Ki entry in assay [1] was “Not Active”.

Turning to `O=C(N[C@@H](Cc1ccc(OCc2ccc(-c3ccccc3)cc2)cc1)C(=O)NS(=O)(=O)c1ccc(NC2CCCCC2)c([N+](=O)[O-])c1)c1ccc2ccccc2c1`, the Ki result in [1] was “Not Active”.

Turning to `Cc1ccc(-c2ccc(COc3ccc(C[C@H](NC(=O)OC(C)(C)C)C(=O)NS(=O)(=O)c4ccc(NCC5CCCCC5)c([N+](=O)[O-])c4)cc3)cc2)cc1`, in assay [1], the inhibition constant Ki result is recorded as “Not Active”.

Turning to `Cl.N[C@@H](Cc1ccc(OCc2ccccc2)cc1)C(=O)NS(=O)(=O)c1ccc(NCCCc2ccccc2)c([N+](=O)[O-])c1`, in assay [1], the Ki result was “Not Active”.

Take `Cl.N#Cc1ccc(COc2ccc(C[C@H](N)C(=O)NS(=O)(=O)c3ccc(NC4CCCC4)c([N+](=O)[O-])c3)cc2)cc1`: the Ki entry in [1] is listed as “Not Active”.

In the case of `O=C(N[C@@H](Cc1ccc(OCc2ccc(-c3ccccc3)cc2)cc1)C(=O)NS(=O)(=O)c1ccc(Cl)c([N+](=O)[O-])c1)c1ccc2ccccc2c1`, the Ki in [1] (read-out: Ki) turned out to be 570 nM.

In the case of `Cc1ccc(CC(=O)N[C@@H](Cc2ccc(OCc3ccc(-c4ccccc4)cc3)cc2)C(=O)NS(=O)(=O)c2ccc(NCCCc3ccccc3)c([N+](=O)[O-])c2)cc1`, the Ki is 450 nM in assay [1] (read-out: Ki), “Not Active” on Bcl-2-like protein 1 and 190 nM in assay [2]. Moreover, the IC50 with Jurkat [3] is 3.37 µM; with RS4-11, 3.39 µM; in the assay with THP-1, 6.46 µM; in the assay on MOLT-4 it was 8.36 µM; with HUVEC, > 50 µM. Moreover, in the assay with Jurkat [4], the viability at 10 µM was 93.8%. In addition, the Activity with Jurkat [5] worked out at 5.48%; in the assay on Jurkat [6] it was 0.72%; in the assay with Jurkat [7], 0.037%; in the assay with Jurkat [9], 20.8%; in the assay on Jurkat [10] it was 1.42%; with Jurkat [11], 0%. Moreover, the Activity entry in the assay on Jurkat [12] and in the assay with Jurkat [13] was “Dose-dependent effect” throughout. Also, in the assay with Jurkat [8], the viability at 20 µM came out at 77.8%.

`Cl.N[C@@H](Cc1ccc(OCc2ccc(-c3ccccc3)cc2)cc1)C(=O)NS(=O)(=O)c1ccc(NCCCc2ccccc2)c([N+](=O)[O-])c1`: the Ki entry in assay [1] is on record as “Not Active”.

For the compound `CC(C)(C)OC(=O)N[C@@H](Cc1ccc(OCc2ccc(Oc3ccccc3)cc2)cc1)C(=O)NS(=O)(=O)c1ccc(NC2CCCCC2)c([N+](=O)[O-])c1`, the Ki result in assay [1] was “Not Active”.

Turning to `CC(C)(C)OC(=O)N[C@@H](Cc1ccc(OCc2ccc(-c3ccccc3)cc2)cc1)C(=O)NS(=O)(=O)c1ccccc1`, the Ki in assay [1] (read-out: Ki) is 5200 nM.

As to `CC(C)(C)OC(=O)N[C@@H](Cc1ccc(OCc2ccc(-c3ccccc3)cc2)cc1)C(=O)NS(=O)(=O)c1ccc(Cl)c([N+](=O)[O-])c1`, the Ki in assay [1] (read-out: Ki) is 620 nM; on Bcl-2-like protein 1, “Not Active”; in [2], 450 nM. In addition, the IC50 was 23.5 µM in the assay with Jurkat [3]; 14.1 µM with RS4-11; 27.2 µM in the assay on THP-1; 44.4 µM in the assay with MOLT-4; > 50 µM in the assay on HUVEC.

Consider `CC(C)(C)OC(=O)N[C@@H](Cc1ccc(OCc2ccc(C#N)cc2)cc1)C(=O)NS(=O)(=O)c1ccc(NCCCc2ccccc2)c([N+](=O)[O-])c1`, for which, in assay [1] (read-out: Ki), the Ki amounted to 800 nM.

As to `O=C(N[C@@H](Cc1ccc(OCc2ccc(-c3ccccc3)cc2)cc1)C(=O)NS(=O)(=O)c1ccc(Cl)c([N+](=O)[O-])c1)c1cccnc1`, the Ki in assay [1] (read-out: Ki) was 580 nM.

The values above are taken from ChEMBL document CHEMBL4229556, “Discovery and development of substituted tyrosine derivatives as Bcl-2/Mcl-1 inhibitors” (Bioorg Med Chem, 2018).
